According to US7196105B2, “Treatment of human multiple myeloma by curcumin” (Research Development Foundation, priority 2002, dated 2007):
Entries after “also recorded” stand apart in the source; their conditions may differ.

Experiments:
IκBα phosphorylation = experiment: Western blot for phosphorylated IκBα in U266 cells; format: cell-based, human; conditions: curcumin 50 μM, time course
Experimental: FIG. 3A: Level of phosphorylated IκBα determined by Western blotting. FIG. 3B: Immunoprecipitated IκB kinase and kinase assay of IκB kinase activity (upper panel) or Western blotting for the analysis of total IKKα and IKKβ proteins in cytoplasmic extracts (lower panel). FIG. 3C: IκB kinase was immunoprecipitated and kinase assay was performed in the absence or presence of the indicated concentrations of curcumin (upper panel). Lower panel indicates the amount of GST-IκBα protein stained with Coomassie Blue in each well in the same dried gel. Thirty to fifty micrograms of cytoplasmic protein extracts prepared as described (Chaturvedi et al., 2000) were resolved on 10% SDS-PAGE gel. After electrophoresis, the proteins were electrotransferred to a nitrocellulose membrane, blocked with 5% nonfat milk, and probed with antibodies against either IkBa, phospho-IkBa, Bcl-2, Bcl-xL, or cyclin D1 (1:3000) for 1 h. Thereafter, the blot was washed, exposed to HRP-conjugated secondary antibodies for 1 h, and finally detected by chemiluminescence (ECL, Amersham Pharmacia Biotech., Arlington Heights, Ill.).

IκBα = experiment: Western blot for NF-κB-regulated gene product IκBα in U266 cells; format: cell-based, human; conditions: curcumin 50 μM, time course
Experimental: Sixty micrograms of cytoplasmic extracts were resolved on 10% SDS-PAGE gel, electrotransferred on a nitrocellulose membrane, and probed for the following: IκBα (FIG. 4A); Bcl-2 (FIG. 4B); Bcl-xL (FIG. 4C) and cyclin D1 (FIG. 4D). The same blots were stripped and reprobed with anti-β-actin antibody to show equal protein loading (lower panel in each figure). FIG. 4E: […] U266, MM.1 or RPMI 8226 cells (1×10^7) were treated with curcumin ([…]) in 5 ml of medium for the indicated times. Supernatants were harvested and concentrated approximately 20×, and IL-6 was quantitated by an IL-6 ELISA kit. Values shown were normalized to 1 ml of un-concentrated supernatants. Thirty to fifty micrograms of cytoplasmic protein extracts prepared as described (Chaturvedi et al., 2000) were resolved on 10% SDS-PAGE gel. After electrophoresis, the proteins were electrotransferred to a nitrocellulose membrane, blocked with 5% nonfat milk, and probed with antibodies against either IkBa, phospho-IkBa, Bcl-2, Bcl-xL, or cyclin D1 (1:3000) for 1 h. Thereafter, the blot was washed, exposed to HRP-conjugated secondary antibodies for 1 h, and finally detected by chemiluminescence (ECL, Amersham Pharmacia Biotech., Arlington Heights, Ill.).

MM.1R = experiment: Growth of cells, viable cell count by trypan blue dye exclusion; format: cell-based; conditions: Homo sapiens, curcumin 1 μM
From the text: (§1) The results are shown as the mean (±s. d.) cell count from triplicate cultures.

MM.1 = experiment: as above; format: cell-based; conditions: Homo sapiens, Mm1; MM.1, curcumin 1 μM
From the text: as §1

RPMI 8226 = experiment: as above; format: cell-based; conditions: Homo sapiens; RPMI 8226, curcumin 1 μM
From the text: as §1

U266 = experiment: as above; format: cell-based; conditions: Homo sapiens, U-266; U266, curcumin 1 μM
From the text: as §1

[1] = test system: multiple myeloma cell lines (U266, RPMI 8226, MM.1, MM.1R); experiment: Growth/proliferation of all multiple myeloma cell lines tested (statement for all lines); format: cell-based, human; conditions: curcumin 10 μM
From the text: as §1

U266 cells = experiment: Proliferation by thymidine incorporation; format: cell-based, human; conditions: U266, 24 h, different concentrations
Experimental: FIG. 6A: U266 cells (5000 cells/0.1 ml) were incubated with different concentrations of curcumin for 24 hours, and cell proliferation assay was performed as described. Results are shown as mean (±s.d.) of percent [^3H}-thymidine incorporation of triplicate cultures compared to untreated control. FIG. 6B: U266 cells (5000 cells/0.1 ml) were incubated with different concentrations of curcumin for 24 hours, and cell viability was determined by MTT method. The results are shown as the mean (±s.d.) percent viability from triplicate cultures. The antiproliferative effects of curcumin were also monitored by the thymidine incorporation method. Five thousand cells in […] medium were cultured in triplicate in 96-well plates in the presence or absence of curcumin for 24 h. Six hours before the completion of experiment, the cells were pulsed with […] ^3H-thymidine, and the uptake of ^3H-thymidine was monitored using a Matrix-9600 b-counter (Packard Instruments, Downers Grove, Ill.).

caspase-9 = experiment: Western blot for procaspase-9 (apoptosis); format: cell-based, human; conditions: U266, curcumin 50 μM, time course
Experimental: The cells were washed and total proteins were extracted by lysing the cells. Sixty microgram of extracts were resolved on 10% SDS-PAGE gel, electrotransferred to a nitrocellulose membrane, and probed with anti-procaspase-9 (FIG. 6C), anti-procaspase-7 (FIG. 6D), anti-PARP (FIG. 6E, upper panel) and anti-cleaved PARP (FIG. 6E, lower penal). […] Lysates were then spun at 14000 rpm for 10 min to remove insoluble material, resolved on 7.5% gel and probed with PARP antibodies. PARP was cleaved from the 116-kDa intact protein into 85-kDa and 40-kDa peptide products. To detect cleavage products of procaspase 7 and procaspase 9, whole cell extracts were resolved on 10% gel and probed with appropriate antibodies.

With `COc1cc(/C=C/C(=O)CC(=O)/C=C/c2ccc(O)c(OC)c2)ccc1O` [curcumin, diferuloylmethane] the “phosphorylated IκBα content” value (IκBα phosphorylation) was “decreased rapidly”, the IκBα protein level (IκBα) was “only a partial decline” and the inhibition at 1 µM (MM.1R) was 51%. It also gave an inhibition at 1 µM (MM.1) of 45%, an inhibition at 1 µM (RPMI 8226) of 23% and an inhibition at 1 µM (U266) of 27%. The suppression of growth/proliferation [1] was “completely suppressed the growth; also recorded: almost complete inhibition of proliferation”, the thymidine incorporation (U266 cells) was “suppressed thymidine incorporation within 24 h in a dose-dependent manner” and the “activation of caspase-9 (disappearance of 47-kDa band)” value (caspase-9) was “time-dependent activation”.
